Columns and labels:
[1] = target: T1, scanMAX Kinase assay panel (Homo sapiens, UniProt Q8NG66); test: Kinase selectivity, scanMAX Kinase assay panel (DiscoverX), % control at 1 uM; assay type: binding; conditions: NEK11; 1 uM; read-out: Percent Control (%)
T1 construct: purchased DiscoverX
T1 sequence (Q8NG66 1-645): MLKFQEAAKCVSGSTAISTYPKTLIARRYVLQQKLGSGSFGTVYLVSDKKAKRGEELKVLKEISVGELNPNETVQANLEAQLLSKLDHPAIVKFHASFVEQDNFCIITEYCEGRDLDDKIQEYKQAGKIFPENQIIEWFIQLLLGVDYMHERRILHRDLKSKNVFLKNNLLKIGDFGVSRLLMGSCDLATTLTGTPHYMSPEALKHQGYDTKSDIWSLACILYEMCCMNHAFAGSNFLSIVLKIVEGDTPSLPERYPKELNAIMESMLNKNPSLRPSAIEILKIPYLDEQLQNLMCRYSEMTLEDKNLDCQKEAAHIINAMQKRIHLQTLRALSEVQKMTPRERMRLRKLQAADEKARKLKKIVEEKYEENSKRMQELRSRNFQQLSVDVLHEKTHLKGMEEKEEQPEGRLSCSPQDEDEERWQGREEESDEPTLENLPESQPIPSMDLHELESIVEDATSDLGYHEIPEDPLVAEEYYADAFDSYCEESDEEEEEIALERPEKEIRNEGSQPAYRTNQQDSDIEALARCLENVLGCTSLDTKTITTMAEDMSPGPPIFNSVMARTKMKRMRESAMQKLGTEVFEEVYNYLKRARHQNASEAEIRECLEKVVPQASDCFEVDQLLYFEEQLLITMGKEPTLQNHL
Method in brief: (§1)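 Read-out is percent of control, derived from the signal with compound relative to positive and negative controls: (compound − positive)/(negative − positive) × 100. Each enzyme received test drug at 1 uM in DMSO, and values under 35% count as active.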

[2] = target: T2, scanMAX Kinase assay panel (Homo sapiens, UniProt Q9UQ88); test: as above; assay type: binding; conditions: CDC2L2; 1 uM; read-out: Percent Control (%)
T2 construct: purchased DiscoverX
T2 sequence (Q9UQ88 1-783): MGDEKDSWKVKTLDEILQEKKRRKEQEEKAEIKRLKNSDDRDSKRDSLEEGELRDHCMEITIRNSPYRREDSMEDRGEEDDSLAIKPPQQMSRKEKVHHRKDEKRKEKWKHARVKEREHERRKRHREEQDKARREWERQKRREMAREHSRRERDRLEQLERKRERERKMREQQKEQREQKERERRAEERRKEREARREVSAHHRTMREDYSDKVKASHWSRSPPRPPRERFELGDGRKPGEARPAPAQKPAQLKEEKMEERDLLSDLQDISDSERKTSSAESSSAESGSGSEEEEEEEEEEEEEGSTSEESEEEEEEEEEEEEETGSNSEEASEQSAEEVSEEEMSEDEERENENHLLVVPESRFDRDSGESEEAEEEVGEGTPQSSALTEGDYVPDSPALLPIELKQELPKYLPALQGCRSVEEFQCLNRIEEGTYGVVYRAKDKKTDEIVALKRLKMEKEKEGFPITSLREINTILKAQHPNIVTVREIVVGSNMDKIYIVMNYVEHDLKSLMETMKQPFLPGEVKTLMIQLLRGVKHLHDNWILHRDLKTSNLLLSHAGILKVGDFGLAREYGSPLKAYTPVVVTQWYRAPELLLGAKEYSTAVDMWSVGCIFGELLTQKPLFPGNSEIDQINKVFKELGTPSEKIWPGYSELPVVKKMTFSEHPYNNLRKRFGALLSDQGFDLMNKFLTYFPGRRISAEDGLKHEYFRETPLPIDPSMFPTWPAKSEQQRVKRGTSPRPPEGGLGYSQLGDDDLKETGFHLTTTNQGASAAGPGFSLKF
Method in brief: as §1

## Cc1ccc(C(=O)Nc2ccc(CN3CCN(C)CC3)c(C(F)(F)F)c2)cc1C#Cc1cnc2c(Nc3cnn(C)c3)cccn12 [Example 1, 4-methyl-3-((8-((1-methyl-1H-pyrazol-4-yl)amino)imidazo[1,2-a]pyridin-3-yl)ethynyl)-N-(4-((4-methylpiperazin-1-yl)methyl)-3-(trifluoromethyl)phenyl)benzamide]
[1]
  remaining binding at 1 µM: 13%
[2]
  remaining binding at 1 µM: 28%

## Cc1cn(-c2cc(NC(=O)c3ccc(C)c(C#Cc4cnc5c(Nc6cnn(C)c6)cccn45)c3)cc(C(F)(F)F)c2)cn1 [Example 12, 4-methyl-N-(3-(4-methyl-1H-imidazol-1-yl)-5-(trifluoromethyl)phenyl)-3-((8-((1-methyl-1H-pyrazol-4-yl)amino)imidazo[1,2-a]pyridin-3-yl)ethynyl)benzamide]
[1]
  remaining binding at 1 µM: 100%
[2]
  remaining binding at 1 µM: 72%

## Cc1ccc(NC(=O)C2(C(=O)Nc3ccc(F)cc3)CC2)cc1C#Cc1cnc2c(Nc3cnn(C(C)C)c3)cccn12 [Example 78]
[1]
  remaining binding at 1 µM: 100%
[2]
  remaining binding at 1 µM: 100%
